Where two headings read alike, the source gives them in different places.
How the values were obtained:
[1] = molecular target: T1, Constitutive androstane receptor (CAR) (Homo sapiens, UniProt Q14994); assay: In vitro CAR activation screening assay (UGT1A1 promoter gtPBREM-pGL4 luciferase reporter in Hep3B-gtPBREM cells); format: cell-based; conditions: for activation at 10 µM: (luminescence of compound − luminescence of scoparone)/luminescence of scoparone × 100%, read-out: CAR Activation Fold
T1 construct: The pGL4-gtPBREM plasmid was transfected into Hep3B cells; endogenous in cells
T1 sequence (Q14994 1-352): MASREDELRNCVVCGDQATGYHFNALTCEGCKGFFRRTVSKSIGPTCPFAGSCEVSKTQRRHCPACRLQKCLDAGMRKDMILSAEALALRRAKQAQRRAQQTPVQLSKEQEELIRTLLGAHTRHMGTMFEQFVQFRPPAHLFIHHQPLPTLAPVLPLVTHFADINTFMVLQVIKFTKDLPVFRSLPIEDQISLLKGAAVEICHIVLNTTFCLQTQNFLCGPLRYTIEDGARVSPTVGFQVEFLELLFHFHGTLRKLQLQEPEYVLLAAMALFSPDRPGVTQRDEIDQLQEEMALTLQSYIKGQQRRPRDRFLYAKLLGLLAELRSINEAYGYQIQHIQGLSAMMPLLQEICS
Description: Until now, there is no commercially available high throughput screening method for CAR activation. Traditionally, CAR activation can be detected in western blots by its downstream signals such as UGT1A1, MRP2 or CYP2B6. […] However, this method was slow and pricy. In order to rapidly screen all the compounds for CAR activation at less cost, an in vitro CAR activation screening assay was developed: DNA was extracted from Hep3B cells and UGT1A1 promoter was obtained using PCR amplification. Ligation between UGT1A1 promoter and pGL4 vector was performed and the plasmid was amplified via E. coli replication. The desired plasmid was extracted from E. coli and transfected into Hep3B. The desired colony bearing UGT1A1 promoter-pGL4 plasmid was selected by neomycin. CAR activation was measured by adding tested compounds to Hep3B for several hours and luminescence was measured. Higher activation will get higher luminescence readout. This assay system was validated with two different CAR agonists: CITCO (direct agonist) and scoparone (an indirect agonist). […] Different concentration of scoparone at 1, 5, 10 and 20 μM had been tested either for luciferase assay or downstream UGT1A1 and MRP2 expression (data not shown) and 10 μM was selected to be the best condition for the following work.
After successfully establishing the in vitro assay, all of the coumarin compounds were subjected to the screening (at 10 μM) and their SAR was discussed. Although the reporter system can successfully identify CAR-activating compounds under 8 h and display better efficiency and sensitivity compared with western blots, it only presented a medium luciferase response. According to previous studies, CITCO was reported to only moderately enhance human CAR (less than 2-fold), compared with the enhance provided by TCPOBOP for murine CAR (5- to 10-fold) in luciferase reporter assays. […] Another possibility for the medium response in our reporter system might be the contribution of the whole gtPBREM element which might include response-suppressive elements that was used and the single nucleotide variation of DR3 element which was reported to slightly reduce the original UGT1A1 activity.
The genomic DNA was isolated from Hep3B cells using Wizard® Genomic DNA Purification Kit (Promega, Fitchburg, WI, USA). The promoter region of UGT1A1 gene, gtPBREM element, was amplified by AccuPrime^TM Taq DNA Polymerase High Fidelity Kit (Invitrogen, MA, USA). The sequence of the amplified element was confirmed by DNA sequencing company and cloned into pGL4 luciferase reporter vector. The pGL4-gtPBREM plasmid was transfected into Hep3B cells. The stable pGL4-gtPBREM transfected Hep3B cells, Hep3B-gtPBREM cells, were established after G418 selection. The luciferase activity represented of CAR activation ability was measured using individual established clone. Further, CAR-shRNA was obtained from the Genomic Research Center and transfected into Hep3B-gtPBREM cells. The transient transfected shCAR-Hep3B-gtPBREM cells were used for further luciferase assays.
The Hep3B-gtPBREM cells and shCAR-Hep3B-gtPBREM cells (1.5 × 10^5 cells/well) were seeded into 12-well plates for overnight then pre-determined concentration compounds were added for desired time. After treatment, transfected cells were washed twice in PBS, lysated with 1× passive lysis buffer and luciferase intensity of equal amount of cell lysate was measured by a Synergy HT Multi-Mode Microplate Reader (BioTek, Winooski, VT, USA).

MRP2 = assay: Protein expression of MRP2 (western blot); format: cell-based, human; conditions: Figure 2; after scoparone or CITCO treatment
Description: Figure 7 The protein expressions of MRP2 after 6,7-diprenoxycoumarin (50) treatment. Hep3B cell (1 × 10^6) were treated with 50 (5, 10, 20 and 40 μM) for 24 h. Treated cell lysates were prepared as described in the Methods section and the expression of MRP2 was analyzed by western blot.
(§1) 1 × 10^6 cells were seeded in a 10 cm plate, incubated at 37 °C for overnight and treated with various concentrations of compounds for the indicated times. After incubation, the culture medium was removed and washed twice with 2 mL ice-cold 1× PBS. Three hundred μL of protein lysis buffer (150 mM NaCl, 50 mM Tris-HCl (pH 7.4), 1% SDS, 1% Triton X-100, 1 mM PMSF) was added into each plate, scraped with a rubber policeman, collected into a premarked microtube and the incubated in ice for 1 h, sonicated by Ultrasonic Cell Disruptor for three time at 5 s each. The cell lysated was cleared by centrifugation at 12,000× g for 15 min at 4 °C. Supernatants were transferred into a fresh marked microtube and stored at −20 °C for future use.
(§2) Protein concentration of each sample was determined using a BCA Protein Assay Kit (Pirece®, Thermo Scientific). Different percentages of SDS-PAGE gels were prepared according to the molecular size of proteins of interest. After complete polymerization of stacking gels, each sample with equal amount of total protein was separated in polyacrylamide gels (stacking gel: 50 v, 60 min; separating gel: 100 v, 60 min). After separating, wet-transfer method was utilized to transfer proteins onto the PVDF membrane. The gels were assembled in the transfer sandwich and put in a transfer tank filled with transfer buffer (25 mM glycine, 0.15% ethanolamine, 20% methanol). The electro-transfer was performed at the voltage of 100 volt for 80 min at 4 °C. After transfer, PVDF-membrane was blocked with 5% BSA in 1× TBS-Tween at room temperature for 1 h. Membrane was washed with 10 mL 1× TBS-Tween three times and incubated with primary antibodies overnight at 4 °C with gentle agitation. […] The emitted fluorescence from the membrane was caught on a LAS-4000 biomolecule imager (FUJI.).

UGT1A1 = assay: Protein expression of UGT1A1 (western blot); format: cell-based, human; conditions: Figure 2; after scoparone or CITCO treatment
Description: as §1
as §2, with “agitation. After primary antibody was removed, the membrane was washed three times with 10 mL 1× TBS-Tween for 10 min at room temperature with constant shaking.” for “agitation.”

human CAR = tested on: human CAR; design: method as in PMID 10757780, PMID 12611900; conditions: cited from earlier work
[2] = tested on: phosphoenopyruvate carboxykinse (PEPCK) mRNA expression; assay: PEPCK mRNA expression induced by dexamethasone and 8-bromo-cAMP in H4IIE cells; format: cell-based, rat; conditions: dexamethasone (500 nM) + 8-bromo-cAMP
Description: S21 Effects of scoparone, 50 (PLH), and 6 on phosphoenopyruvate carboxykinse (PEPCK) mRNA expression induced by dexamethasone and 8-bromo-cAMP.
A quantified result of dexamethasone (500 nM) and 8-bromo-cAMP (100µM) induced PEPCK mRNA expression in the presence or absence of scoparone, 50 (PLH) and 6 at 0.78 µM was shown. Insulin (10 nM) was served as an experimental control. Quantified data was presented as mean ± S.E.M. (n = 4). **P < 0.01 and ***P < 0.001 when compared with induction control (None).
PEPCK mRNA could be induced by dexamethasone and 8-bromo-cAMP after 3hr. The presence of insulin […]
Scoparone, at 0.78 µM, can suppress PEPCK
In contrast, both 50 (PLH) and 6 could also suppress PEPCK
Cell culture: The rat H4IIE cells were cultured in Dulbecco’s Modified Eagle’sMedium (DMEM) containing 1 g/L glucose, 5% (v/v) fetal calf serum (FBS) and 1% (v/v) antibiotics (100 U/mL penicillin and 0.1 g/L streptomycin). Cultured cells were maintained at 37 ◦C in an atmosphere of 5% CO2 and 95% air.
The measurement of PEPCK gene expression: H4IIE cells were seeded into 6 cm dish and allowed for the attachment. After serum starvation overnight, cells were treated with various conditions described in the figure legend. After treatment, total RNA of each treatment was extracted using TRI-reagent according to the manufacturer’s instructions. The pelleted RNA was dissolved in distilled water, quantified with NanoDrop™ 1000 Spectrophotometer (Thermo Fisher Scientific, USA) and stored at −70 ◦C. Total RNA (1µg) was reverse transcribed to generate templates. 50 ng of cDNA was employed for further PCR. The sequences of […]
primers for β-actin: 5’-[…]- 3’ and 5’-[…]-3’ and […]
(1 picture or pasted object on this page, not shown here)

[3] = MTT cell cytotoxicity assay of coumarin derivatives; format: cell-based; conditions: human, Hep 3B cells, 72 h treatment
Description: The colorimetric assay for cellular growth and survivals described by Hansen et al. with modifications. The MTT (3-(4,5-cimethylthiazol-2yl)-2,5-diphenyltetrazolium bromide, Sigma-Aldrich Inc., Germany) assay was utilized to determine the IC50 value of each compound. Cells (5000 cells/well) were seeded into 96-well plates for 24 h and subsequently the cells were treated with vehicle or tested compounds at pre-determined concentration. After 72 h treatment, MTT solution was added to the final concentration of 0.5 mg/mL and continue cultured for 2 h at 37 °C. Afterward, the cells were lysed with lysis buffer (40% DMF and 20% SDS in H2O) overnight at 37 °C to lysate the cells. The absorbance at 570 nm was then detected by a microplate reader and the IC50 value was calculated.

murine CAR = tested on: murine CAR; design: method as in PMID 10757780, PMID 12611900; conditions: cited from earlier work
CAR protein = assay: Immunofluorescence staining for CAR translocation in Hep3B cells; format: cell-based, human; conditions: pre-treated with 10 nM okadaic acid, then 50 (10 μM) 2 h
Description: Figure 3 Image of immunofluorescence staining for CAR translocation in Hep3B cells after 6,7-diprenoxycoumarin (50) treatment (A) and scoparone treatment (C). Hep3B cells were treated with 50 (10 μM) for 2 h. The negative control group was pre-treated with 10 nM okadaic acid (OA). The blue and green fluorescence stands for signals of nuclei and CAR protein, respectively. The protein expression of nuclear CAR after 6,7-diprenoxycoumarin (50) treatment for 2 h (B).
Hep3B cells (4 × 10^5) were grown on coverslips for overnight then washed twice with 1× PBS and fixed with 4% paraformaldehyde in 1× PBS for 30 min at room temperature. Cells were then permeabilized with 1× PBS containing 0.1% (v/v) Triton X-100 for 10–15 min and blocked in 1× PBS containing 5% BSA for 1 h at room temperature. CAR antibody (1:200 dilutions) was added and reacted at room temperature for 2 h in 1× PBS containing 5% BSA. FITC-conjugated goat anti-rabbit IgG antibody was added for another 1 h at room temperature. Coverslips were mounted and images were acquired under a fluorescence microscope.

With `Clc1ccc(-c2nc3sccn3c2/C=N/OCc2ccc(Cl)c(Cl)c2)cc1` [CITCO, 6-(4-Chlorophenyl) imidazo [2,1-b] [1, 3] thiazole-5-carbaldehyde O-(3,4-dichlorobenzyl) oxime, reference compound] the “elevation of luciferase activity” value ([1]; assay validation, direct agonist) was “about 50%”, the “protein expression of MRP2 (CAR downstream gene)” value (MRP2) was “upregulated” and the “protein expression of UGT1A (CAR downstream gene)” value (UGT1A1) was “upregulated”. The “enhancement of human CAR in luciferase reporter assays” value (human CAR) was “less than 2 fold”.

With `CC(C)=CCOc1cccc2oc(=O)ccc12` [Compound 6] the activation at 10 µM ([1]; Table 1) was -5% and the “suppression of PEPCK mRNA induction” value ([2]; test compounds as printed) was “less potent”.

For `CCCCCOc1cc2ccc(=O)oc2cc1OCCCCC` [Compound 47, 6,7-Dipentoxycoumarin], the activation at 10 µM ([1]; Table 2) was -10%, the IC50 at 72 h [3] was 31 µM and the melting point was 57 to 59 °C.

For `Clc1cnc(Oc2ccc(Oc3ncc(Cl)cc3Cl)cc2)c(Cl)c1` [TCPOBOP], the “enhancement of murine CAR in luciferase reporter assays” value (murine CAR) is given as 5- to 10 fold.

For `C=C1[C@@H](O)[C@@H]2O[C@]3(CC[C@H](/C=C/[C@@H](C)[C@@H]4CC(C)=C[C@@]5(O[C@H](C[C@@](C)(O)C(=O)O)CC[C@H]5O)O4)O3)CC[C@H]2O[C@@H]1[C@@H](O)C[C@H](C)[C@H]1O[C@@]2(CCCCO2)CC[C@H]1C` [okadaic acid, reference compound], the “CAR translocation activity of 50 after pre-treatment” value (CAR protein) was “inhibited”.

For “insulin: Insulin (10 nM) served as an experimental control in the PEPCK assay”, the “suppression of PEPCK mRNA induction” value ([2]; 10 nM, experimental control) was “suppress such induction”.
